Where “and” joins values, the source holds several entries; their conditions need not be identical. Equal entries are not always repeated. Where two headings read alike, the source gives them in different places.
Columns and labels:
[1] = tested on: panel of seven human tumor cell lines; experiment: Antiproliferative activity, range over panel of seven human tumor cell lines; assay type: cell-based; conditions: read-out: IC50 values, range over the cell line panel
Experimental: (§1) Human T-cell leukemia (Jurkat) and human B-cell leukemia (SEM and RS4;11) cells were grown in RPMI-1640 medium (Gibco, Milano, Italy). Breast adenocarcinoma (MCF-7), human cervix carcinoma (HeLa), human lung adenocarcinoma (A549) and human colon adenocarcinoma (HT-29) cells were grown in DMEM medium (Gibco, Milano, Italy), all supplemented with 115 units/mL penicillin G (Gibco, Milano, Italy), 115 μg/mL streptomycin (Invitrogen, Milano, Italy), and 10% fetal bovine serum (FBS; Invitrogen, Milano, Italy). Stock solutions (10 mM) of the different compounds were obtained by dissolving them in DMSO. Individual wells of a 96-well tissue culture microtiter plate were inoculated with 100 μL of complete medium containing 8 × 10^3 cells. The plates were incubated at 37 °C in a humidified 5% CO2 incubator for 18 h prior to the experiments. After medium removal, 100 μL of fresh medium containing the test compound at different concentrations was added to each well in triplicate and incubated at 37 °C for 72 h. The percentage of DMSO in the medium never exceeded 0.25%. This was also the maximum DMSO concentration in all cell-based assays described below.

HeLa cells = experiment: Annexin-V/PI apoptosis assay, HeLa; assay type: cell-based, human; conditions: 60 nM, 24 h
Experimental: Cell death was determined by flow cytometry of cells double stained with annexin V/FITC and PI. The Coulter Cytomics FC500 (Beckman Coulter) was used to measure the surface exposure of PS on apoptotic cells according to the manufacturer’s instructions (Annexin-V Fluos, Roche Diagnostics).

HUVECs = experiment: Cytotoxicity in HUVECs; assay type: cell-based; conditions: Homo sapiens, HUVEC; primary HUVECs
Experimental: HUVECs were prepared from human umbilical cord veins, as previously described. The adherent cells were maintained in M200 medium supplemented with LSGS (Low Serum Growth Supplement), containing FBS, hydrocortisone, hEGF, bFGF, heparin, gentamycin/amphotericin (Life Technologies, Monza, Italy). Once confluent, the cells were detached by a trypsin–EDTA solution and used in experiments from the first to sixth passages.

SEM cells = experiment: Antiproliferative MTT assay, SEM; assay type: cell-based, human; conditions: Homo sapiens, 72 h, mean ± SE
Experimental: as §1

MCF-7 = experiment: Antiproliferative MTT assay, MCF-7; assay type: cell-based, human; conditions: Homo sapiens, MCF7, 72 h, mean ± SE
Experimental: as §1

tubulin = experiment: Inhibition of [3H]colchicine binding to tubulin; conditions: tubulin 1 μM, [3H]colchicine 5 μM
Experimental: To evaluate the effect of the compounds on tubulin assembly in vitro[41], varying concentrations of compounds were preincubated with 10 μM bovine brain tubulin in 0.8 M monosodium glutamate (pH adjusted to 6.6 with HCl in a 2.0 M stock solution) at 30 °C and then cooled to 0 °C. After addition of 0.4 mM GTP, the mixtures were transferred to 0 °C cuvettes in a recording spectrophotometer and warmed to 30 °C. Tubulin assembly was followed turbidimetrically at 350 nm. […] The capacity of the test compounds to inhibit colchicine binding to tubulin was measured as described, except that the reaction mixtures contained 1 μM tubulin, 5 μM [^3H]colchicine and 1 or 5 μM test compound.

[2] = tested on: PBL not stimulated with PHA; experiment: Cytotoxicity in resting peripheral blood lymphocytes; assay type: cell-based; conditions: Homo sapiens, Lymphocyte, 72 h, MTT, mean ± SEM, read-out: IC50 PBLresting
Experimental: (§2) Peripheral blood lymphocytes (PBL) from healthy donors were obtained from human peripheral blood (leucocyte rich plasma- buffy coats) from healthy volunteers using the Lymphoprep (Fresenius KABI Norge AS) gradient density centrifugation.
(§3) After extensive washing, cells were resuspended (1.0 × 10^6 cells/mL) in RPMI-1640 with 10% FBS and incubated overnight. For cytotoxicity evaluations in proliferating PBL cultures, non-adherent cells were resuspended at 5 × 10^5 cells/mL in growth medium, containing 2.5 μg/mL PHA (Irvine Scientific). Different concentrations of the test compounds were added, and viability was determined 72 h later by the MTT test. For cytotoxicity evaluations in resting PBL cultures, non-adherent cells were resuspended (5 × 10^5 cells/mL) and treated for 72 h with the test compounds, as described above.

PBL stimulated with PHA = experiment: Cytotoxicity in PHA-stimulated peripheral blood lymphocytes; assay type: cell-based; conditions: Homo sapiens, Lymphocyte, 72 h, MTT, mean ± SEM, read-out: IC50 PBLPHA
Experimental: as §2, §3

[3] = tested on: BL6-B16 murine melanoma cells; experiment: Mouse allograft tumor model (BL6-B16 melanoma); assay type: in vivo
From the text: Animal experiments were approved by our local animal ethics committee (OPBA, Organismo Preposto al Benessere degli Animali, Università degli Studi di Brescia, Italy) and were executed in accordance with national guidelines and regulations. Procedures involving animals and their care conformed with institutional guidelines that comply with national and international laws and policies (EEC Council Directive 86/609, OJ L 358, 12 December 1987) and with “ARRIVE” guidelines (Animals in Research Reporting In Vivo Experiments). Six week old C57BL/6 mice (Charles River, Calco) were injected subcutaneously into the dorsolateral flank with 2.5x10^5 BL6-B16 murine melanoma cells in 200 μL of PBS. When tumors were palpable, animals were treated intraperitoneally every other day with different doses of test compounds dissolved in 50 μL of DMSO. Tumors were measured in two dimensions, and tumor volume was calculated according to the formula V = (D × d^2)/2, where D and d are the major and minor perpendicular tumor diameters, respectively.

Jurkat cells = experiment: ROS production (H2-DCFDA), Jurkat; assay type: cell-based, human; conditions: 100 nM, untreated about 4%

In the case of `CCOc1ccc(-c2oc(C)nc2-c2cc(OC)c(OC)c(OC)c2)cc1` [Compound 4i, 4-(3,4,5-Trimethoxyphenyl)-5-(4-ethoxyphenyl)-2-methyloxazole], the IC50 ([1]; Homo sapiens) is reported as 0.5 to 20 nM, the IC50 [1] is reported as 0.5 to 20.2 nM and the “apoptotic cells (annexin-V)” value (HeLa cells) is reported as 70%. It also gave an IC50 (HUVECs) greater than 100000 nM, an IC50 (SEM cells) of 6.1 ± 2.3 nM and an IC50 (MCF-7) of 4.5 ± 1.8 nM. The “Colchicine binding % inhibition ± S.D, 1 μM drug” value (tubulin; 1 μM drug) was 62 ± 0.4%, the “Colchicine binding % inhibition ± S.D, 5 μM drug” value (tubulin; 5 μM drug) was 82% and 86 ± 1% and the IC50 [2] was 14900 ± 3500 nM. For the same molecule, the IC50 (PBL stimulated with PHA) was 18300 ± 1500 nM, the “reduction in tumor mass” value ([3]; 3.0 mg/kg i.p. on days 9, 11 and 14) was 34.9% and the “reduction in tumor mass” value ([3]; 7.5 mg/kg i.p. on days 9, 11 and 14) was 52.5%. The “signs of toxicity in mice” value ([3]; highest dose (7.5 mg/kg i.p.)) was “did not show any sign of toxicity”, the animal body weight ([3]; highest dose (7.5 mg/kg i.p.), data not shown) was “did not cause a decrease in animal body weight” and the “DCF positive cells (ROS production)” value (Jurkat cells) was 25–30%.

Reference: publication PMC5390315 (Scientific Reports, 2017)
